# Test results from patent publication US5578616A, “Phenyl-alkyl-imidazoles” (Schering Corporation, priority 1995, dated 1996).
# Tested on: histamine H3 receptor
# Test: not given
# Details: mice, electrically induced convulsions; cited from earlier work
row,Compound,duration of each phase of convulsion
1,S=C(NC1CCCCC1)N1CCC(c2cnc[nH]2)CC1 [thioperamide],decreased the duration of each phase of convulsion

# Same assay, conditions: mice; cited from earlier work
row,Compound,electroconvulsive threshold
1,S=C(NC1CCCCC1)N1CCC(c2cnc[nH]2)CC1 [thioperamide],raised the electroconvulsive threshold

# Tested on: H3 receptors
# Test: not given
# Details: rat; cited from earlier work
row,Compound,short-term memory and reversal learning
1,S=C(NC1CCCCC1)N1CCC(c2cnc[nH]2)CC1 [thioperamide],can improve short-term memory and reversal learning

# Biological target: T1, H3 receptor (Cavia porcellus, UniProt Q9JI35)
# T1 construct: The source of the H3 receptors in this experiment was guinea pig brain; from tissue; host or cells: guinea pig brain membranes
# T1 sequence (Q9JI35 whole entry): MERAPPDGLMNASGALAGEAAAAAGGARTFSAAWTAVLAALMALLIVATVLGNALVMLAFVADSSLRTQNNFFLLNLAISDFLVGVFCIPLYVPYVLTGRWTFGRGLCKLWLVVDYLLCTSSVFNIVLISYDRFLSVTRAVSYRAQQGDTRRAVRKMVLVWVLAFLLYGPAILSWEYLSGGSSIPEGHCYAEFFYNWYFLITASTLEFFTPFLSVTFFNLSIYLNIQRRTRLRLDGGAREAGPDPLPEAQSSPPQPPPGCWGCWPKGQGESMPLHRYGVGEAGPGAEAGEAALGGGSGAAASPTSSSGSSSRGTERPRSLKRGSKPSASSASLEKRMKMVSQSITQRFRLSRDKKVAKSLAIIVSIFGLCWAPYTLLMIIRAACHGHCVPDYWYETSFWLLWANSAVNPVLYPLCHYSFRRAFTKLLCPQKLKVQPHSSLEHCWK
# Test: H3 Receptor Binding Assay
# Set-up: species or system guinea pig
# Details: not given
# Description: The source of the H3 receptors in this experiment was guinea pig brain. The animals weighed 400-600 g. The brain tissue was homogenized using a Polytron in a solution of 50 mM Tris, pH 7.5. The final concentration of tissue in the homogenization buffer was 10% w/v. The homogenates were centrifuged at 1,000× g for 10 min. in order to remove clumps of tissue and debris. The resulting supernatants were then centrifuged at 50,000× g for 20 min. in order to sediment the membranes, which were next washed three times in homogenization buffer (50,000× g for 20 min. each). The membranes were frozen and stored at -70° C. until needed.
# All compounds to be tested were dissolved in DMSO and then diluted into the binding buffer (50 mM Tris, pH 7.5) such that the final concentration was 2 μg/mL with 0.1% DMSO. Membranes were then added (400 μg of protein) to the reaction tubes. The reaction was started by the addition of 3 nM [^3 H]R-α-methylhistamine (8.8 Ci/mmol) or 3 nM [^3 H]N^α -methylhistamine (80 Ci/mmol) and continued under incubation at 30° C. for 30 min. Bound ligand was separated from unbound ligand by filtration, and the amount of radioactive ligand bound to the membranes was quantitated by liquid scintillation spectrometry. All incubations were performed in duplicate and the standard error was always less than 10%. Compounds that inhibited more than 70% of the specific binding of radioactive ligand to the receptor were serially diluted to determine a Ki (μM).
row,Compound,Ki
1,"N=C(CCc1ccc(Cc2cnc[nH]2)cc1)NCc1ccc(Cl)cc1 [Compound 27, N-[(4-Chlorophenyl)methyl]-4-[(1H-imidazol-4-yl)methyl]benzene propanimidamide]",180 nM
2,"O=C(Nc1ccc(Cl)cc1)OCc1ccc(Cc2c[nH]cn2)cc1 [Compound 38, [4-(1H-Imidazol-4-ylmethyl)phenyl]methyl N-(4-chlorophenyl)carbamate]",24 nM
3,"N=C(NCc1ccc(Cl)cc1)c1ccc(Cc2c[nH]cn2)cc1 [Compound 6, N-[(4-Chlorophenyl)methyl]-4-[(1H-imidazol-4-yl)methyl]benzene methanimidamide]",14 nM
4,"NCc1ccc(Cc2c[nH]cn2)cc1 [Compound 21, 4-[(1H-Imidazol-4-yl)methyl]benzenemethanamine]",78 nM
5,"COc1ccc(C/N=C(\N)c2ccc(Cc3c[nH]cn3)cc2)cc1 [Compound 6a, N-[(4-Methoxyphenyl)methyl]-4-[(1H-imidazol-4-yl)methyl]benzene methanimidamide]",560 nM

# Same assay, conditions: guinea pig brain membranes; 3 nM [^3 H]R-α-methylhistamine or 3 nM [^3 H]N^α -methylhistamine; 30° C., 30 min, pH 7.5; read-out: Ki
row,Compound,Ki
1,"N=C(Cc1ccc(Cc2c[nH]cn2)cc1)NCc1ccc(Cl)cc1 [Compound 29, N-[(4-Chlorophenyl)methyl]-4-[(1H-imidazol-4-yl)methyl]benzene ethanimidamide]",7.2 nM
2,"N=C(NCc1ccc(C(F)(F)F)cc1)c1ccc(Cc2c[nH]cn2)cc1 [Compound 6b, N-[(4-trifluoromethylphenyl)methyl]-4-[(1H-imidazol-4-yl)methyl]benzenemethanimidamide]",140 nM
3,"N=C(N)c1cccc(Cc2c[nH]cn2)c1 [Compound 10, 3-[(1H-Imidazol-4-yl)methyl]benzene methanimidamide]",310 nM
4,"N=C(N)c1ccc(Cc2c[nH]cn2)cc1 [Compound 9, 4-[(1H-Imidazol-4-yl)methyl]benzene methanimidamide]",38 nM
5,"N=C(N)c1ccc(CCc2cnc[nH]2)cc1 [Compound 17, 4-[(1H-Imidazol-4-yl)ethyl]benzene methanimidamide]",170 nM
6,"N=C(N)c1cccc(CCc2c[nH]cn2)c1 [Compound 16, 3-[(1H-Imidazol-4-yl)ethyl]benzene methanimidamide]",220 nM
7,"N=C(NCCc1ccccc1)c1ccc(Cc2c[nH]cn2)cc1 [Compound 6d, N-(2-Phenylethyl)-4-[(1H-imidazol-4-yl)methyl]benzene methanimidamide]",450 nM

# Same assay, conditions: pH 7.5, read-out: Inhibition of binding of radioactive ligand, Inhibition (%) at 2 μg/ml
row,Compound,inhibition at 2 µg/mL
1,"O=C(OCc1ccc(Cc2c[nH]cn2)cc1)c1ccc(Cl)cc1 [Compound 40, [4-(1H-Imidazol-4-ylmethyl)phenyl]methyl 4-chlorobenzoate]",10%
2,"O=C(NCc1ccc(Cl)cc1)c1ccc(Cc2c[nH]cn2)cc1 [Compound 33, N-[(4-Chlorophenyl)methyl]-4-(1H-imidazol-4-ylmethyl)benzamide]",61%
3,"N=C(NCc1ccncc1)c1ccc(Cc2c[nH]cn2)cc1 [Compound 6c, N-[(4-Pyridyl)methyl]-4-[(1H-imidazol-4-yl)methyl]benzene methanimidamide]",48%
4,"Clc1ccc(COCc2ccc(Cc3c[nH]cn3)cc2)cc1 [Compound 36, 4-[[4-[[(4-Chlorophenyl)methoxy]methyl]phenyl]methyl]-1H-imidazole]",6 to 87%
5,"O=C(OCc1ccc(Cl)cc1)c1ccc(Cc2c[nH]cn2)cc1 [Compound 43, (4-Chlorophenyl)methyl 4-(1H-imidazol-4-ylmethyl)benzoate]",16 to 78%
